Measurements taken from US20240101561A1, “NOVEL TETRAZOLES” (Boehringer Ingelheim International GmbH, priority 2019, published 2024).
pIC50: −log10 of the molar value.

Experiments:
[1] = Assay C: Hepatocyte clearance; type: in vitro ADME, human; details: cryopreserved hepatocyte suspension, incubated six hours
Method: Assay C: Hepatocyte Clearance
The metabolic degradation of the test compound is assayed in a hepatocyte suspension. Hepatocytes (cryopreserved) are incubated in. Dulbecco's modified eagle medium (supplemented with 3.5 μg glucagon/500 mL, 2.5 mg insulin/500 mL and 3.75 mg/500 mL hydrocortison) containing 5% or 50% species serum.
Following a 30 min preincubation in an incubator (37° C., 10% CO2) 5 μl of test compound solution (80 μM; from 2 mM in DMSO stock solution diluted 1:25 with medium) are added into 395 μl hepatocyte suspension (cell density in the range 0.25-5 Mio cells/mL depending on the species, typically 1 Mio cells/mL; final concentration of test compound final DMSO concentration 0.05%).
The cells are incubated for six hours (incubator, orbital shaker) and samples (25 μl) are taken at 0, 0.5, 1, 2, 4 and 6 hours. Samples are transferred into acetonitrile and pelleted by centrifugation (5 min). The supernatant is transferred to a new 96-deepwell plate, evaporated under nitrogen and resuspended.
Decline of Parent Compound is Analyzed by HPLC-MS/MS
CLint is calculated as follows CL_[…]=Dose/AUC=(C0/CD)/(AUD+clast/k)×1000/60. C0: initial concentration in the incubation [μM], CD: cell density of vital cells [10e6cells/mL], AUD: area under the data [μM×h], clast: concentration of last data point [μM], k: slope of the regression line for parent decline [h−1].
The calculated in vitro hepatic intrinsic clearance can be scaled up to the intrinsic in vivo hepatic Clearance and used to predict hepatic in vivo blood clearance (CL) by the use of a liver model (well stirred model).
CL_[…]_INVIVO [ml/min/kg]=(CL_[…] [μL/min/10e6cells]×hepatocellularity[10e6cells/g liver]×liver factor [g/kg bodyweight])/1000
CL [ml/min/kg]=CL_[…]_INVIVO [ml/min/kg]×hepatic blood flow [ml/min/kg]/(CL_[…]_INVIVO [ml/min/kg]+hepatic blood flow [ml/min/kg])

[2] = Assay B: Microsomal clearance; type: in vitro ADME, human; details: pooled liver microsomes, 1 μM test compound, 37° C., NADPH
Method: Assay B: Microsomal Clearance:
The metabolic degradation of the test compound is assayed at 37° C. with pooled liver microsomes. The final incubation volume of 100 μl per time point contains TRIS buffer pH 7.6 at RT (0.1 M), magnesium chloride (5 mM), microsomal protein (1 mg/ml) and the test compound at a final concentration of 1 μM.
Following a short preincubation period at 37° C., the reactions are initiated by addition of beta-nicotinamide adenine dinucleotide phosphate, reduced form (NADPH, 1 mM) and terminated by transferring an aliquot into solvent after different time points (0, 5, 15, 30, 60 min). Additionally, the NADPH-independent degradation is monitored in incubations without NADPH, terminated at the last time point. The [%] remaining test compound after NADPH independent incubation is reflected by the parameter c(control) (metabolic stability). The quenched incubations are pelleted by centrifugation (10000 g, 5 min).
An aliquot of the supernatant is assayed by LC-MS/MS for the amount of parent compound. The half-life (t½ INVITRO) is determined by the slope of the semilogarithmic plot of the concentration-time profile.
The intrinsic clearance (CL_[…]) is calculated by considering the amount of protein in the incubation:
CL_[…] [μl/min/mg protein]=(Ln 2/(half-life [min]*protein content [mg/ml]))*1000
CL_[…]_INVIVO [ml/min/kg]=(CL_[…] [μL/min/mg protein]×MPPGL [mg protein/g liver]×liver factor [g/kg bodyweight])/1000

[3] = target: human TRPA1 ion channel (Homo sapiens (Human), UniProt O75762); test: Assay A: TRPA1 cell assay (FLIPR, AITC-induced intracellular calcium); type: cell-based; details: HEK293 cells over-expressing human TRPA1; AITC 10 μM agonist; FLIPRtetra; read-out: hTRPA1 IC50
Chain of human TRPA1 ion channel (O75762 whole entry): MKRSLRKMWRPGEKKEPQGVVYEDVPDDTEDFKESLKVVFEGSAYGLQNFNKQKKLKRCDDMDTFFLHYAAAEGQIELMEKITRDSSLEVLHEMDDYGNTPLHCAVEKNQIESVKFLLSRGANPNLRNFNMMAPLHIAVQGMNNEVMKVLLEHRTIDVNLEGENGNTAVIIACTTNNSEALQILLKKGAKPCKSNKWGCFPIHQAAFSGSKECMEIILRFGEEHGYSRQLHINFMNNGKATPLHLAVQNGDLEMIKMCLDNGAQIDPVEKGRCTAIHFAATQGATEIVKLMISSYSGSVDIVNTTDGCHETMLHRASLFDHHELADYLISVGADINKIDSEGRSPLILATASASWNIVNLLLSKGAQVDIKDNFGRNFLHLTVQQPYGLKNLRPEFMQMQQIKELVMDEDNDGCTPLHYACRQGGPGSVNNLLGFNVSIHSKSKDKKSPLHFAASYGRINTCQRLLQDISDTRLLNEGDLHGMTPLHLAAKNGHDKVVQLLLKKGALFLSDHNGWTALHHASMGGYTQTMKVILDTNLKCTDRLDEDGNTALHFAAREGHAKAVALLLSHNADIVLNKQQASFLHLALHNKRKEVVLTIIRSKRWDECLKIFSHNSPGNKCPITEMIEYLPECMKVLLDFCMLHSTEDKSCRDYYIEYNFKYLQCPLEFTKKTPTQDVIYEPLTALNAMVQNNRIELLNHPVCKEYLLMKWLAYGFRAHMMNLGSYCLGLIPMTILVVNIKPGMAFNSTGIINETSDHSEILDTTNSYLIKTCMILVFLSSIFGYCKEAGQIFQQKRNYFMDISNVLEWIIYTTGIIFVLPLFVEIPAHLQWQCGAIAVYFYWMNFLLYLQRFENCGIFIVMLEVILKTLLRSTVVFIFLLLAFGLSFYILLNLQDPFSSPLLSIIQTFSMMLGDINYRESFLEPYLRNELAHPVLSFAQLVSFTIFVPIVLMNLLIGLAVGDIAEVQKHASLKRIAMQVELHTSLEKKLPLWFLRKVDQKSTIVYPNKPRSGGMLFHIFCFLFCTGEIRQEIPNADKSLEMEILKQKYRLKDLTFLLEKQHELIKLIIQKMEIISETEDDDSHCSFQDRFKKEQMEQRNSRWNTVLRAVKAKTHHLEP
Method: A human HEK293 cell line over-expressing the human TRPA1 ion channel (Perkin Elmer, Product No. AX-004-PCL) was used as a test system for compound efficacy and potency.
Compound activity was determined by measuring the effect of compounds on intracellular calcium concentration induced by AITC (Allylisothiocyanat) agonism in a FLIPRtetra system (Molecular Devices).
The cells were obtained as frozen cells in cryo-vials and stored until use at −150° C. Cells were grown in culture medium (MEM/EBSS medium with 10% FCS and 0.4 mg/ML Geneticin). […] For sub-culturing cells were detached from flasks by Versene. At the day before the assay, cells were detached, washed twice with medium (MEM/EBSS medium with 10% FCS) and 20000 cells in 20 μl/well were seeded to Poly D-Lysin biocoated 384-well plates (black, clear bottom, Cat.356697) from Corning. Plates were incubated for 24 hours at 37° C./5% CO2 before use in the assay.
The test compounds were dissolved in 100% DMSO at a concentration of 10 mM and in a first step diluted in DMSO to a concentration of 5 mM, followed by serial dilution steps in 100% DMSO. Dilution factor and number of dilution steps may vary according to needs. Typically 8 different concentrations by 1:5 dilutions were prepared, further intermediate dilutions (1:20) of the substances were carried out with HBSS/HEPES buffer (1×HEPES,Cat.14065 from Gibco, 20 mM HEPES, Cat. 83264 from SIGMA, 0.1% BSA Cat.11926 from Invitrogen, pH 7,4
At the assay day cells were washed 3× with assay puffer, 20 μL buffer remained in the wells after washing. 10 μL Ca6 kit (Cat.R8191 MolecularDevices) loading buffer in HBSS/HEPES was added to the cells and the plates were incubated with lid for 120 minutes at 37°/5% CO2. 10 μL of compound or controls in HBSS/HEPES buffer/5% DMSO from the intermediate dilution plate were carefully added to the wells. […] Finally 10 μL of the agonist AITC 50 μM dissolved in HBSS/HEPES buffer/0,05% DMSO (final concentration 10 μM) was added to the wells followed by an additional read on the FLIPRtetra device for 10 minutes. The area under the signal curve (AUC) after AITC addition was used for IC50/% inhibition calculations
Data Evaluation and Calculation:
Each assay microtiter plate contained wells with vehicle (1% DMSO) controls instead of compound as controls for AITC induced luminescence (100% CTL; high controls) and wells with vehicle controls without AITC as controls for non-specific changes in luminescence (0% CTL; low controls).
The analysis of the data was performed by the calculation of the area under signal curve of the individual wells. Based on this values the % value for the measurement of each substance concentration was calculated (AUC(sample)−AUC(low))*100/(AUC(high)−AUC(low)) using MegaLab software (in house development). The IC50 values were calculated from the % control values using MegaLab software. Calculation: [y=(a−d)/(1+(x/c){circle around ( )}b)+d], a=low value, d=high value; x=conc M; c=IC50 M; b=hill; y=ctrl

[4] = Assay D: Metabolism in human hepatocytes in vitro; type: in vitro ADME; details: primary human hepatocytes, 10 μM test compound, up to six hours
Method: Assay D: Metabolism in Human Hepatocytes In Vitro
The metabolic pathway of a test compound is investigated using primary human hepatocytes in suspension.
Following a 30 min preincubation in a cell culture incubator (37° C., 10% CO2), test compound solution is spiked into the hepatocyte suspension to obtain a final cell density of 1.0*10^6 to 4.0*10^6 cells/ml (depending on the metabolic turnover rate of the compound observed with primary human hepatocytes), a final test compound concentration of 10 μM, and a final DMSO concentration of 0.05%.
The cells are incubated for six hours in a cell culture incubator on a horizontal shaker, and samples are removed from the incubation after 0, 0.5, 1, 2, 4 or 6 hours, depending on the metabolic turnover rate. Samples are quenched with acetonitrile and pelleted by centrifugation. The supernatant is transferred to a 96-deepwell plate, evaporated under nitrogen and resuspended prior to bioanalysis by liquid chromatography-high resolution mass spectrometry for identification of putative metabolites.

Compound | human Hepatocytes [% Qh] [1] | human LM [% Qh] [2] | pIC50 [3] | Major metabolite observed: mechanism (Metabolite M1) [4]
Cn1nnc2ncn(Cc3nnn(C[C@H](O)c4ccc(Cl)cc4)n3)c(=O)c21 [Example 1] | <4 % Qh | <23 % Qh | 7.46 | 
Cn1cnc2nc(N)n(Cc3nnn(C[C@H](O)c4ccc(Cl)cc4)n3)c(=O)c21 [Example 2] |  |  | 6.54 | 
Cc1ccn2ncn(Cc3nnn(C[C@H](O)c4ccc(Cl)cc4)n3)c(=O)c12 [Example 3] |  | >89 % Qh | 7.12 | 
O=c1c2scnc2ncn1Cc1nnn(C[C@H](O)c2ccc(Cl)cc2)n1 [Example 4] |  | <23 % Qh | 6.71 | 
Cc1nn(C)c2ncn(Cc3nnn(C[C@H](O)c4ccc(Cl)cc4)n3)c(=O)c12 [Example 5] | 31 % Qh | <23 % Qh | 7.57 | N-Demethylation

Now from value to molecule:

human Hepatocytes [% Qh] [1] | human LM [% Qh] [2] | pIC50 [3] | Major metabolite observed: mechanism (Metabolite M1) [4] | Compound
 | <23 % Qh | 6.56 |  | Cn1cnc2cnn(Cc3nnn(C[C@H](O)c4ccc(Cl)cc4)n3)c(=O)c21 [Example 7]
22 % Qh | <23 % Qh | 7.57 |  | Cc1ncn2ncn(Cc3nnn(C[C@H](O)c4ccc(Cl)cc4)n3)c(=O)c12 [Example 8]
<4 % Qh | <23 % Qh | 7.14 |  | Cn1cnc2ncn(Cc3nnn(C[C@H](O)c4ccc(Cl)cc4)n3)c(=O)c21 [Example 9, 1-({2-[(2R)-2-(4-chlorophenyl)-2-hydroxyethyl]-2H-1,2,3,4-tetrazol-5-yl}methyl)-7-methyl-6,7-dihydro-1H-purin-6-one]
